Target: T1, STK17A (DRAK1) (Homo sapiens, UniProt Q9UEE5)
T1 construct: purchased Thermo Fisher Scientific (Life Technologies) SelectScreen
Experiment: SelectScreen LanthaScreen
Format: binding
Conditions: read-out: % displacement
Method in brief: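 NU5455 was profiled across the SelectScreen Broad panel of kinase activity and binding assays. Z'LYTE reactions such as CSF1R ran at apparent Km ATP, while the Adapta CAMK1 assay used ATP listed as 10. Values are given as percent.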

T1 sequence (Q9UEE5 whole entry): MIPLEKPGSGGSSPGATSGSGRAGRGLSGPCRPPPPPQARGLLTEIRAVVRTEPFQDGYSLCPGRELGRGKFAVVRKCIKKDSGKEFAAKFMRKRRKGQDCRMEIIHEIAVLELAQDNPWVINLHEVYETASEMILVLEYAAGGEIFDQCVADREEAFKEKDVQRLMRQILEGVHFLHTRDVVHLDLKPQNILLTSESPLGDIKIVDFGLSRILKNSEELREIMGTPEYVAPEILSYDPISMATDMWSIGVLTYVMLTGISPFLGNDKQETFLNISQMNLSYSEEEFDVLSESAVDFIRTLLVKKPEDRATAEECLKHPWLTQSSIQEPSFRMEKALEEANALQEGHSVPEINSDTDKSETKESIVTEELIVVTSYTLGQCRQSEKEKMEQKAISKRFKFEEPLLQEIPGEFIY

CN(C(=O)CN1CCOCC1)c1ccc2sc3c(-c4cccc5c(=O)cc(N6CC7CCC(C6)O7)oc45)cccc3c2c1 [NU5455]
inhibition at 1 µM: -6.6%

— article PMC6934184, “Selective DNA-PKcs inhibition extends the therapeutic index of localized radiotherapy and chemotherapy” (The Journal of Clinical Investigation, 2019)
